# Laboratory results: US20250215010A1, “DIAZABICYCLOOCTANE DERIVATIVES USEFUL AS MATRIX METALLOPROTEINASE INHIBITORS” (VASA THERAPEUTICS SPOLKA Z OGRANICZONA ODPOWIEDZIALNOSCIA, priority 2022, published 2025)
# Columns and labels:
# Format in all cases: biochemical
# ADAM17 (TACE) = ADAM17 (TACE) (Homo sapiens, UniProt P78536); assay: TACE fluorometric inhibition assay (Enzo kit BML-AK310); conditions: quenched fluorogenic peptide, ex/em 320/420 nm; read-out: TACE IC50 class
# In short: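 Kit-based TACE assay run per manufacturer's protocol, using quenched fluorogenic peptide Mca-PLAQAV-Dpa-RSSSR-NH2 whose cleavage raises Mca fluorescence. Signal read at ex/em 320/420 nm; IC50 (nM) derived from inhibition curves of normalized values.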
# MMP2 = target: T1, MMP2 (Homo sapiens, UniProt P08253); assay: MMP-2 colorimetric inhibition assay (Enzo kit BML-AK408); conditions: thiopeptide substrate, absorbance 415 nm; read-out: MMP 2 IC50 class
# T1 sequence (P08253 110-660): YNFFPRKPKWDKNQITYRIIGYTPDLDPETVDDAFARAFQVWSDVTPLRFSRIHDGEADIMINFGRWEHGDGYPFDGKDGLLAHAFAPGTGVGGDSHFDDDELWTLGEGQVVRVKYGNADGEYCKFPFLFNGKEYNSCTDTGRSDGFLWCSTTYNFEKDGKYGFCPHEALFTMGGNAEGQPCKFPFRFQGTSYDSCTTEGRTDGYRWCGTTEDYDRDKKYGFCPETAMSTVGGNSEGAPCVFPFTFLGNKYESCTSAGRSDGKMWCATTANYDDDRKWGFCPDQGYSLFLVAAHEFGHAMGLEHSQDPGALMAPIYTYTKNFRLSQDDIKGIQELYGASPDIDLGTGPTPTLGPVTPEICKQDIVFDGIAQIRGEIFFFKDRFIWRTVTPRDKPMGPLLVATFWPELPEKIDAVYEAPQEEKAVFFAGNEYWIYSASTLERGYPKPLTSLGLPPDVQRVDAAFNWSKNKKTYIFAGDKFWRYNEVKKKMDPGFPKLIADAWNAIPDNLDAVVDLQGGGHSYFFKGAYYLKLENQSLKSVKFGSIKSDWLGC
# In short: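 Cleavage of the thiopeptide Ac-PLG-[2-mercapto-4-methylpentanoyl]-LG-OC2H5 releases a sulfhydryl that reacts with DTNB, read at 415 nm per the kit protocol. IC50 values (nM) come from inhibition curves of normalized data.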
# MMP13 = target: T2, MMP13 (Homo sapiens, UniProt P45452); assay: MMP-13 colorimetric inhibition assay (Enzo kit BML-AK412); conditions: thiopeptide substrate, absorbance 415 nm; read-out: MMP 13 IC50 class
# T2 construct: purchased Enzo Life Sciences, Inc. BML-AK412
# In short: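 Thiopeptide chromogenic substrate (Ac-PLG-[2-mercapto-4-methylpentanoyl]-LG-OC2H5); MMP-13 hydrolysis of the thioester yields a thiol that reacts with DTNB, read at 415 nm. IC50 values (nM) derived from inhibition curves of normalized data.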
# MMP1 = target: T3, MMP1 (Homo sapiens, UniProt P03956); assay: MMP-1 colorimetric inhibition assay (Enzo kit BML-AK404); conditions: thiopeptide substrate, absorbance 415 nm; read-out: MMP 1 IC50 class
# T3 sequence (P03956 100-269 limits assumed): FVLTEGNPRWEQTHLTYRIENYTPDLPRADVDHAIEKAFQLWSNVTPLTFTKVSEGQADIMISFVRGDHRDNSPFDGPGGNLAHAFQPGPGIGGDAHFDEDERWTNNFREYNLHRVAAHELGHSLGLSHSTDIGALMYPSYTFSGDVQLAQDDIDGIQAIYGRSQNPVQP
# In short: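 Colorimetric kit run per manufacturer protocol. MMP-1 cleaves a thiopeptide substrate (Ac-PLG-[2-mercapto-4-methylpentanoyl]-LG-OC2H5); released thiol reacts with DTNB, monitored at 415 nm. IC50 (nM) from inhibition curves of normalized values.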
# ADAM10 = target: T4, ADAM10 (Homo sapiens, UniProt O14672); assay: SensoLyte 520 ADAM10 fluorometric activity assay (AnaSpec AS-72226); conditions: FRET peptide substrate, ex/em 495/520 nm; read-out: ADAM 10 IC50 class
# T4 construct: purchased AnaSpec, Inc. AS-72226
# T4 sequence (O14672 214-748): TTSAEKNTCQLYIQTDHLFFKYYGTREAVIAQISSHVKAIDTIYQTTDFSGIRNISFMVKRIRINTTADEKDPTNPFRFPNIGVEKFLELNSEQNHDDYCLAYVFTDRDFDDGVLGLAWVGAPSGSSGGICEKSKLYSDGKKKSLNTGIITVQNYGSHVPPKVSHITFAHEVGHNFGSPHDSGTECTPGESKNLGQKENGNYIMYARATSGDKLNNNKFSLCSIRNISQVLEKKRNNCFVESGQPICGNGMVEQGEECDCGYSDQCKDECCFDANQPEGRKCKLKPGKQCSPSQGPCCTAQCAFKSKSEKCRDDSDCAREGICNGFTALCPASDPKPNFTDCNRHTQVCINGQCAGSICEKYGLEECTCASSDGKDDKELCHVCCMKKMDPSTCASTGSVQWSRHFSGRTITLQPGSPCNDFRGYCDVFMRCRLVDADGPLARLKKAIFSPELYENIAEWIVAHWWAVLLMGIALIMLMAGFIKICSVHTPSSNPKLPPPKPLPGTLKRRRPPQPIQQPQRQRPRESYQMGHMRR
# In short: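 ADAM10 activity was read by cleavage of a FRET peptide substrate (5-FAM/QXL 520), run per the kit protocol, with fluorescence at 495/520 nm. IC50 values (nM) came from inhibition curves of normalized data.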
# MMP9 = MMP9 (Homo sapiens, UniProt P14780); assay: MMP-9 colorimetric inhibition assay (Enzo kit BML-AK410); conditions: thiopeptide substrate, absorbance 415 nm; read-out: MMP 9 IC50 class
# In short: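 Colorimetric thioester-substrate assay: hydrolysis of Ac-PLG-[2-mercapto-4-methylpentanoyl]-LG-OC2H5 frees a thiol that reacts with DTNB, read at 415 nm. Run per kit protocol. IC50 (nM) taken from inhibition curves of normalized values.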
# Chain of MMP9 (P14780 94-707): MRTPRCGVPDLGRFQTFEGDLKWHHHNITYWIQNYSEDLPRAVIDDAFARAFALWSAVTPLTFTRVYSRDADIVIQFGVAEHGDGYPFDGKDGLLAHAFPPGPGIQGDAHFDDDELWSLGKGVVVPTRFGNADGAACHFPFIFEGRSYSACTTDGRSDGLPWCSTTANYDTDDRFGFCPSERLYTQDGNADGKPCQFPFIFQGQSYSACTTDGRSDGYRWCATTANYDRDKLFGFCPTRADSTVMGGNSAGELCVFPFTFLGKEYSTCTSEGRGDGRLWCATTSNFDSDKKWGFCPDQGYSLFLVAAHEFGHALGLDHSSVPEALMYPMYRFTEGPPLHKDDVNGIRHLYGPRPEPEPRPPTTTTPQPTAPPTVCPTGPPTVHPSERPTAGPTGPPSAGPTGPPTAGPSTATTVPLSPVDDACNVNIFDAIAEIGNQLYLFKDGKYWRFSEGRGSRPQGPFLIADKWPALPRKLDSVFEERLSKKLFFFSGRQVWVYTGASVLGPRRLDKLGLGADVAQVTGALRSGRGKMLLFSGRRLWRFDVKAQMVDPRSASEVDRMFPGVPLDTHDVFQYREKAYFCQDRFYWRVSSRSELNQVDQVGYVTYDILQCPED
# Chain of ADAM17 (TACE) (P78536 215-477 limits assumed): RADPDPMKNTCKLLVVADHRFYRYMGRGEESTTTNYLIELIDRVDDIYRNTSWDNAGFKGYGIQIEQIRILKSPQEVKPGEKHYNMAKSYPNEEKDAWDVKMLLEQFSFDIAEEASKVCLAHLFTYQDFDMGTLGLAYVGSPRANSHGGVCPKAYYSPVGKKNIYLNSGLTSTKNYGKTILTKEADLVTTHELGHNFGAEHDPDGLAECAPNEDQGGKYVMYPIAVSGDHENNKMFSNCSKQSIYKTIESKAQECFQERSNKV
compound,measurement,setting,value
"COc1ccc(Oc2ccc(S(=O)(=O)N3C[C@H]4CC[C@@H]([C@@H]3C(=O)NO)N4C(=O)N3CCOCC3)cn2)cc1F [Example 73, (1S,2R,5R)-3-((6-(3-fluoro-4-methoxy-phenoxy)pyridin-3-yl)-sulfonyl)-N-hydroxy-8-(morpholine-4-carbonyl)-3,8-diazabicyclo[3.2.1]-octane-2-carboxamide]",IC50,ADAM17 (TACE),1000 to 10000 nM
same,IC50,MMP2,< 50 nM
same,IC50,MMP13,< 50 nM
same,IC50,MMP1,> 10000 nM
same,IC50,ADAM10,1000 to 10000 nM
same,IC50,MMP9,< 50 nM
